Assay results as given in ChEMBL document CHEMBL1128493, “Synthesis and sigma binding properties of 2'-substituted 5,9 alpha-dimethyl-6,7-benzomorphans” (J Med Chem, 1995).
pKi: −log10 of the molar value.

Columns and labels:
[1] = Binding affinity at Sigma receptor type 2 on rat liver membranes receptor by [3H]DTG displacement.
[2] = Binding affinity measured on Sigma receptor type 1 from guinea pig brain membranes using [3H]pentazocine as radioligand.

In the case of CC1C2Cc3ccc(O)cc3C1(C)CCN2Cc1ccccc1 (single isomer, unassigned; (+)), the pKi [1] was 5.77 and the pKi [2] was 9.17.
